This passage reports IC50 results from US20230374035A1, “RAS INHIBITORS” (Revolution Medicines, Inc., priority 2019, published 2023).

The subject of one test is NCI-H358 (K-Ras G12C). In words: CellTiter-Glo Cell Viability Assay. The test is classed as cell-based. Particulars: Homo sapiens, NCI-H358, 120 h; H358, 5-day treatment. How it is done:
Determination of Cell Viability in RAS Mutant Cancer Cell Lines
Protocol: CellTiter-Glo® Cell Viability Assay
Note—The following protocol describes a procedure for monitoring cell viability of K-Ras mutant cancer cell lines in response to a compound of the invention. Other RAS isoforms may be employed, though the number of cells to be seeded will vary based on cell line used.
Test compounds (132.5 nl) were directly dispensed into the assay plates containing cells. […] On day 5, assay plates and their contents were equilibrated to room temperature for approximately 30 minutes. […] Luminescence was measured using the PerkinElmer Enspire. Data were normalized by the following: (Sample signal/Avg. DMSO)*100. The data were fit using a four-parameter logistic fit.

Another test deals with NRAS Q61K (Homo sapiens, UniProt P01111+P62937, Q61K). In words: Disruption of BRAF RBD interaction with Ras (FRET / MOA assay). The note with it: read-out: NRAS Q61K FRET data IC50. It is filed as biochemical. How it is done:
(§1) Compound is present in plate wells as a 10-point 3-fold dilution series starting at a final concentration of 30 μM. […] Compounds that facilitate disruption of a Ras:RAF complex are identified as those eliciting a decrease in the TR-FRET ratio relative to DMSO control wells.
(§2) Note—The following protocol describes a procedure for monitoring disruption of K-Ras G12C (GMP-PNP) binding to BRAF^RBD by a compound of the invention. This protocol may also be executed substituting other Ras proteins or nucleotides.
(§3) The purpose of this biochemical assay was to measure the ability of test compounds to facilitate ternary complex formation between a nucleotide-loaded K-Ras isoform and Cyclophilin A; the resulting ternary complex disrupts binding to a BRAF^RBD construct, inhibiting K-Ras signaling through a RAF effector. Data is reported as IC50 values.
(§4) Compound was present in plate wells as a 10-point 3-fold dilution series starting at a final concentration of 30 μM. […] Compounds that facilitate disruption of a K-Ras:RAF complex were identified as those eliciting a decrease in the TR-FRET ratio relative to DMSO control wells.

The target in the next test is NRAS Q61R (Homo sapiens, UniProt P01111+P62937, Q61R). Described as above. The test is classed as biochemical. The note with it: read-out: NRAS Q61R FRET data IC50. How it is done: as §1, §2, §3, §4
Sequence of NRAS Q61R (P01111 whole entry Q61R): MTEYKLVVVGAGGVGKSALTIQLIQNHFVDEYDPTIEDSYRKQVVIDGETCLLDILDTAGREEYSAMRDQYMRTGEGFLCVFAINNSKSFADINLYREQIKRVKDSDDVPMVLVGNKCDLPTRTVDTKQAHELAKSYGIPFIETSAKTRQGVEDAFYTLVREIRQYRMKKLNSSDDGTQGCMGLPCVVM
Sequence of NRAS Q61R (P62937 whole entry): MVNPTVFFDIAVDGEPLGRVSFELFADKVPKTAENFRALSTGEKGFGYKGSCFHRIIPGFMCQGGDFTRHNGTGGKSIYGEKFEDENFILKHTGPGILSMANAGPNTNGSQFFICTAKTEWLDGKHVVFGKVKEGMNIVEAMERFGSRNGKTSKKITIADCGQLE
The next test concerns the target KRAS G12C (Homo sapiens, UniProt P01116+P62937, G12C). As to the kind of experiment: Disruption of BRAF RBD interaction with K-Ras (FRET / MOA assay). It is filed as biochemical. The method, then: as §1, §2, §3, §4
In the next test the target is KRAS Q61H (Homo sapiens, UniProt P01116+P62937, Q61H). The test is described as above. It is filed as biochemical. Particulars: read-out: KRAS Q61H FRET data IC50. The method, then:
as §1, §2, §3, §4

Where [1] appears, read: read-out: KRAS G12C FRET data IC50.

Read-outs that look alike come from different tables or passages of the source.

Sequence of KRAS Q61H (P01116 1-188 isoform P01116-2 Q61H): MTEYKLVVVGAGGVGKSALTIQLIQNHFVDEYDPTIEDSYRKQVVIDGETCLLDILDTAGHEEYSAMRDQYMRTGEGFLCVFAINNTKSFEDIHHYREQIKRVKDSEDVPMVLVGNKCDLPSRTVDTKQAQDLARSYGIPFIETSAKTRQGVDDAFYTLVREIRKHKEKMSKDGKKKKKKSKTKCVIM
Sequence of KRAS Q61H (P62937 whole entry): as the sequence (P62937 whole entry) above
Sequence of NRAS Q61K (P01111 whole entry Q61K): as the sequence (P01111 whole entry Q61R) above, with R61K counted along it
Sequence of NRAS Q61K (P62937 whole entry): as the sequence (P62937 whole entry) above
Sequence of KRAS G12C (P01116 1-188 isoform P01116-2 G12C): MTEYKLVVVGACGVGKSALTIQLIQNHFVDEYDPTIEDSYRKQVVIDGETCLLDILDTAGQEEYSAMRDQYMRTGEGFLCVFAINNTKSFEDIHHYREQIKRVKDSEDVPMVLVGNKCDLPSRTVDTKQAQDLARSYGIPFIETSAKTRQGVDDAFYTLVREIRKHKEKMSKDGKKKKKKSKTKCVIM
Sequence of KRAS G12C (P62937 whole entry): as the sequence (P62937 whole entry) above

As a reminder, the IC50 is the concentration needed to halve the response being measured. `CCn1c(-c2cccnc2[C@H](C)OC)c2c3cc(ccc31)-c1csc(n1)C[C@H](NC(=O)[C@H](C(C)C)N(C)C(=O)N1CCC3(COC3)C1)C(=O)N1CCC[C@H](N1)C(=O)OCC(C)(C)C2` (atropisomer, axis not shown) [Compound A561]: the IC50 is less than 0.01 µM in the test on NCI-H358 (K-Ras G12C), 0.01 to 0.1 µM at NRAS Q61K and 0.01 to 0.1 µM at NRAS Q61R.

As to `CCn1c(-c2cccnc2[C@H](C)OC)c2c3cc(ccc31)-c1csc(n1)C[C@H](NC(=O)[C@H](C(C)C)N(C)C(=O)N1CCN3C(=O)CN(C)C[C@@H]3C1)C(=O)N1CCC[C@H](N1)C(=O)OCC(C)(C)C2` (atropisomer, axis not shown) [Compound A536], the IC50 with NCI-H358 (K-Ras G12C) was less than 0.01 µM; at NRAS Q61K, 0.01 to 0.1 µM; on NRAS Q61R, 0.01 to 0.1 µM.

In the case of `CCn1c(-c2cccnc2[C@H](C)OC)c2c3cc(ccc31)-c1csc(n1)C[C@H](NC(=O)[C@H](C(C)C)N(C)C(=O)N1CCN(C(C)=O)CC1)C(=O)N1CCC[C@H](N1)C(=O)OCC(C)(C)C2` (atropisomer, axis not shown) [Compound A291], the IC50 in the test with NCI-H358 (K-Ras G12C) was less than 0.01 µM; at NRAS Q61K it was 0.01 to 0.1 µM; at NRAS Q61R it was 0.01 to 0.1 µM.

Take `CCn1c(-c2cccnc2[C@H](C)OC)c2c3cc(ccc31)-c1cc(O)cc(c1)C[C@H](NS(=O)(=O)c1ccc(OC)cc1OC)C(=O)N1CCC[C@H](N1)C(=O)OCC(C)(C)C2` (racemic) [Compound A198]: the concentration for half-maximal inhibition (IC50) at KRAS G12C is more than 10 µM.

In the case of `CCn1c(-c2cccnc2[C@H](C)OC)c2c3cc(ccc31)-c1csc(n1)C[C@H](NC(=O)[C@H](C(C)C)N(C)C(=O)N1C[C@H]3COC[C@H]3C1)C(=O)N1CCC[C@H](N1)C(=O)OCC(C)(C)C2` (atropisomer, axis not shown) [Compound A312], the IC50 at NRAS Q61K and at NRAS Q61R was 0.01 to 0.1 µM throughout.

Turning to `CCn1c(-c2cccnc2[C@H](C)OC)c2c3cc(ccc31)-c1cc(O)cc(c1)C[C@H](NC(=O)[C@H](C(C)C)N(C)C(=O)C1(C(=O)O)CC1)C(=O)N1CCC[C@H](N1)C(=O)OCC(C)(C)C2` (racemic) [Compound A150], the values for the concentration for half-maximal inhibition (IC50) on KRAS Q61H and at NRAS Q61R were 1 to 10 µM and more than 10 µM, respectively.

Regarding `CCn1c(-c2cccnc2[C@H](C)OC)c2c3cc(ccc31)-c1csc(n1)C[C@H](NC(=O)[C@H](C(C)C)N(C)C(=O)N(C)N(C)C)C(=O)N1CCC[C@H](N1)C(=O)OCC(C)(C)C2` (atropisomer, axis not shown) [Compound A454], the IC50 at NRAS Q61K and at NRAS Q61R was 0.01 to 0.1 µM throughout.

For `CCn1c(-c2cccnc2[C@H](C)OC)c2c3cc(ccc31)-c1cc(cc3nc[nH]c13)C[C@H](NC(=O)[C@H](C(C)C)N(C)C(C)=O)C(=O)N1CCC[C@H](N1)C(=O)OCC(C)(C)C2` (racemic) [Compound A153], the IC50 on KRAS G12C (setting [1]) is more than 10 µM.

`CCn1c(-c2cccnc2[C@H](C)OC)c2c3cc(ccc31)-c1cc(O)cc(c1)C[C@H](NS(=O)(=O)N1CCOCC1)C(=O)N1CCC[C@H](N1)C(=O)OCC(C)(C)C2` (racemic) [Compound A194]: the IC50 against KRAS G12C is more than 10 µM.

Consider `CCn1c(-c2cccnc2[C@H](C)OC)c2c3cc(ccc31)-c1csc(n1)C[C@H](NC(=O)[C@H](C(C)C)N1CCC3(CN(C(=O)OC)C3)C1=O)C(=O)N1CCC[C@H](N1)C(=O)OCC(C)(C)C2` (racemic) [Compound A235], for which the 50% inhibitory concentration (IC50) at KRAS G12C was more than 10 µM.

As for `CCn1c(-c2cccnc2[C@H](C)OC)c2c3cc(ccc31)-c1cc(O)cc(c1)C[C@H](NS(=O)(=O)c1ccc(O)cc1)C(=O)N1CCC[C@H](N1)C(=O)OCC(C)(C)C2` (racemic) [Compound A195], the IC50 at KRAS G12C (setting [1]) is more than 10 µM.

As for `CO[C@@H](C)c1ncccc1-c1c2c3cc(ccc3n1C)-c1cc(O)cc(c1)C[C@H](NC(=O)[C@H](C(C)C)N(C)C(C)=O)C(=O)N1CCC[C@H](N1)C(=O)OCC(C)(C)C2` (racemic) [Compound A104], the IC50 at KRAS Q61H is 1 to 10 µM; at NRAS Q61R, more than 10 µM.

Turning to `CCn1c(-c2cc(N3CCN(C)CC3)cnc2[C@H](C)OC)c2c3cc(ccc31)-c1csc(n1)C[C@H](NC(=O)[C@H](C(C)C)N(C)C(=O)N1CC(OC)C1)C(=O)N1CCC[C@H](N1)C(=O)OCC(C)(C)C2` (atropisomer, axis not shown) [Compound A466], the half-maximal inhibitory concentration (IC50) is less than 0.01 µM with NCI-H358 (K-Ras G12C), 0.01 to 0.1 µM on NRAS Q61K and 0.01 to 0.1 µM on NRAS Q61R.

For `CCn1c(-c2cccnc2[C@H](C)OC)c2c3cc(ccc31)-c1cc(O)cc(c1)C[C@H](NS(=O)(=O)C1CC1)C(=O)N1CCC[C@H](N1)C(=O)OCC(C)(C)C2` (racemic) [Compound A196], the half-maximal inhibitory concentration (IC50) on KRAS G12C (setting [1]) was more than 10 µM.

Consider `CCn1c(-c2cccnc2[C@H](C)OC)c2c3cc(ccc31)-c1csc(n1)C[C@H](NC(=O)[C@H](C(C)C)N(C)C(=O)[C@H]1CCN(S(C)(=O)=O)C1)C(=O)N1CCC[C@H](N1)C(=O)OCC(C)(C)C2` (racemic) [Compound A237], for which the IC50 on KRAS Q61H was 1 to 10 µM.

As to `CCn1c(-c2cccnc2[C@H](C)OC)c2c3cc(ccc31)-c1cc(O)cc(c1)C[C@H](NC(=O)[C@H](C(C)C)N(C)C(=O)[C@@H]1OCC[C@@H]1c1ccccc1)C(=O)N1CCC[C@H](N1)C(=O)OCC(C)(C)C2` (atropisomer, axis not shown) [Compound A415], the IC50 at NRAS Q61K and on NRAS Q61R was 0.01 to 0.1 µM throughout.

Take `CCn1c(-c2cccnc2[C@H](C)OC)c2c3cc(ccc31)-c1csc(n1)C[C@H](NC(=O)[C@H](C(C)C)N(C)C(=O)N1CCC1)C(=O)N1CCC[C@H](N1)C(=O)OCC(C)(C)C2` (atropisomer, axis not shown) [Compound A399]: the values for the IC50 in the test on NCI-H358 (K-Ras G12C), at NRAS Q61K and at NRAS Q61R were less than 0.01 µM, 0.01 to 0.1 µM and 0.01 to 0.1 µM, respectively.

On to `CCn1c(-c2cccnc2[C@H](C)OC)c2c3cc(ccc31)-c1csc(n1)C[C@H](NC(=O)[C@H](C(C)C)N(C)C(=O)N1CCC(C(=O)C(F)(F)F)CC1)C(=O)C1CCC[C@H](N1)C(=O)OCC(C)(C)C2` [Compound A422], for which the half-inhibitory concentration (IC50) at NRAS Q61K and at NRAS Q61R was 0.01 to 0.1 µM in each case.

Consider `CCn1c(-c2cccnc2[C@H](C)OC)c2c3cc(ccc31)-c1csc(n1)C[C@H](NC(=O)[C@H](C(C)C)N(C)C(=O)N1CC(Cc3cnn(C)c3)C1)C(=O)N1CCC[C@H](N1)C(=O)OCC(C)(C)C2` (atropisomer, axis not shown) [Compound A500], for which the 50% inhibitory concentration (IC50) is less than 0.01 µM in the test with NCI-H358 (K-Ras G12C), 0.01 to 0.1 µM on NRAS Q61K and 0.01 to 0.1 µM at NRAS Q61R.

In the case of `CCn1c(-c2cccnc2[C@H](C)OC)c2c3cc(ccc31)-c1csc(n1)C[C@H](NC(=O)[C@H](C(C)C)N(C)C(=O)N1CCOC3(COC3)C1)C(=O)N1CCC[C@H](N1)C(=O)OCC(C)(C)C2` (atropisomer, axis not shown) [Compound A475], the 50% inhibitory concentration (IC50) at NRAS Q61K and on NRAS Q61R was 0.01 to 0.1 µM in each case.

In the case of `CCn1c(-c2cccnc2[C@H](C)OC)c2c3cc(ccc31)-c1csc(n1)C[C@H](NC(=O)[C@H](C(C)C)N(C)C(=O)N1C[C@@H]3CCN(C)C[C@@H]31)C(=O)N1CCC[C@H](N1)C(=O)OCC(C)(C)C2` (atropisomer, axis not shown) [Compound A516], on KRAS Q61H, the IC50 was in the range of 1 to 10 µM.

Regarding `CCn1c(-c2cccnc2[C@H](C)OC)c2c3cc(ccc31)-c1csc(n1)C[C@H](NC(=O)[C@H](C(C)C)N(C)C(=O)N1CC[C@@H]1C)C(=O)N1CCC[C@H](N1)C(=O)OCC(C)(C)C2` (atropisomer, axis not shown) [Compound A304], the IC50 with NCI-H358 (K-Ras G12C) is less than 0.01 µM; on NRAS Q61K, 0.01 to 0.1 µM; at NRAS Q61R, 0.01 to 0.1 µM.

With `CCn1c(-c2cccnc2[C@H](C)OC)c2c3cc(ccc31)-c1csc(n1)C[C@H](NC(=O)[C@H](C(C)C)N(C)C(=O)N1C[C@H]3CCN(C)C[C@H]31)C(=O)N1CCC[C@H](N1)C(=O)OCC(C)(C)C2` (atropisomer, axis not shown) [Compound A517], the IC50 on KRAS Q61H lay within 1 to 10 µM.

For `CCn1c(-c2cccnc2[C@H](C)OC)c2c3cc(ccc31)-c1csc(n1)C[C@H](NC(=O)[C@H](C(C)C)N(C)C(=O)N1CCC13COC3)C(=O)N1CCC[C@H](N1)C(=O)OCC(C)(C)C2` (atropisomer, axis not shown) [Compound A560], the half-maximal inhibitory concentration (IC50) at NRAS Q61K and on NRAS Q61R was 0.01 to 0.1 µM throughout.

Turning to `CCn1c(-c2cccnc2[C@H](C)OC)c2c3cc(ccc31)-c1cc(O)cc(c1)C[C@H](NS(=O)(=O)CC1CC1)C(=O)N1CCC[C@H](N1)C(=O)OCC(C)(C)C2` (racemic) [Compound A200], on KRAS G12C (setting [1]), the half-inhibitory concentration (IC50) is more than 10 µM.

As to `CCn1c(-c2cccnc2[C@H](C)OC)c2c3cc(ccc31)-c1cc(O)cc(c1)C[C@H](NS(=O)(=O)c1cn(C)c(C)n1)C(=O)N1CCC[C@H](N1)C(=O)OCC(C)(C)C2` (racemic) [Compound A197], the IC50 on KRAS G12C (setting [1]) was more than 10 µM.
